Entries after “also recorded” stand apart in the source; their conditions may differ.
Columns and labels:
[1] = Hemodynamic effects of methylene blue on hypotensive pigs (LCX artery occluded, sildenafil citrate plus nitroglycerin); format: in vivo, pig; details: LCX balloon occlusion, 100 mg sildenafil citrate via esophagus tube, 0.2 mg nitroglycerin i.v. bolus along with MB bolus 3 mg/kg
Procedure: (§1) Pigs weighing between 20 and 25 kg were anesthetized in accordance with the standard procedure of the Canadian Council on Animal Care Regulations. After baseline hemodynamic measurements, the left circumflex (LCX) artery was occluded using a catheter balloon so as to mimic the condition of patients with cardiovascular disease. As soon as the animal was stable, a bolus injection of nitroglycerin (0.2 mg) was given intravenously in order to observe the effect of nitroglycerin alone on the animal. The animal's blood pressure was allowed to return to normal, and the animal was given 100 mg of sildenafil citrate via an esophagus tube. One hour after the administration of sildenafil citrate, a bolus injection of 0.2 mg of nitroglycerin was given to the animal in order to observe the combined effect of […] and nitroglycerin on the animal. When the animal's blood pressure returned to normal, a second 0.2 mg bolus injection of nitroglycerin was given along with a bolus of MB (3 mg/kg). Blood pressure and heart rate were monitored throughout the procedure.

[2] = humans, dosages above 2 mg/kg; cited from earlier work
[3] = Hemodynamic effects of methylene blue on hypotensive dogs (same procedure as for pigs); format: in vivo, dog; details: same procedure as pigs: sildenafil citrate, nitroglycerin bolus
Procedure: as §1
The procedure used was the same as that for pigs. (See EXAMPLE 1, above.) The experiments were conducted on dogs to see what effect the combination of a phosphodiesterase inhibitor and an organic nitrate would have on an animal with a greater number of collaterals than the pig. […]

For `CN(C)c1ccc2nc3ccc(N(C)C)cc3[s+]c2c1.[Cl-]` [MB, 3,7-bis(dimethylamino)phenothiazin-5-ium chloride], the “changes in time in systolic blood pressure after nitroglycerin injection with MB” value [1] is listed as “Pressure recovery was much more rapid in the presence of MB; also recorded: beneficial effects of MB may be seen; also recorded: effectiveness of MB in increasing the blood pressure”, the “respiratory problems at high dosage” value [2] is listed as “can lead to respiratory problems in humans” and the “changes in time in systolic blood pressure after nitroglycerin injection with MB” value [3] is listed as “A drop in blood pressure is less pronounced, and there is more rapid recovery time, than without MB; also recorded: MB effectively increased the blood pressure in the animals tested”.

Source: US7323461B2, “Use of methylene blue and related compounds to prevent or reverse an exaggerated hemodynamic reaction” (Montreal Heart Institute, priority 2002, dated 2008)
